Data on four substances can be found in US8246943B2, “Prebiotic composition” (Conopco, Inc., priority 2009, dated 2012).

In assay [1] the test system is Clostridia (C. histolyticum and C. perfringens). The class given is cell-based.
The next assay has as its system Bacteroides. Description: 3 stage in vitro gut model, bacterial populations. The assay is classed as cell-based.
Assay [2] has as its system bifidobacteria. Particulars: background statement; cited from earlier work.
Assay [3] concerns Eubacterium rectale and Clostridium coccoides. As to the kind of experiment: 3 stage in vitro gut model, bacterial populations. The assay is classed as cell-based.
Assay [4] has as its system Bifidobacteria. As to the kind of experiment: 3 stage in vitro gut model, bacterial populations. The class given is cell-based.
Assay [5] can be described thus: prebiotic effect of black tea flavonoid components (test not described). The note with it: statement in the description, no test given.
Setting [6] is: SS1 (steady state without test substrate), vessel 1.
The mark [7] stands for this setting: SS1 (steady state without test substrate), vessel 2.
[8] abbreviates: SS1 (steady state without test substrate), vessel 3.
Setting [9] is: SS2 (steady state with substrate added daily), vessel 1.
Setting [10] is: SS2 (steady state with substrate added daily), vessel 2.
The mark [11] stands for this setting: SS2 (steady state with substrate added daily), vessel 3.

“And” between values parts separate entries of the source, which are not always exact repeats. Identical values can stand only once.

As to Inulin, in assay [1], the “Clostridia (C. histolyticum and C. perfringens) population” value is 5.67 Log 10 cells/ml of culture fluid and 5.84 Log 10 cells/ml of culture fluid and 5.49 Log 10 cells/ml of culture fluid and 5.89 Log 10 cells/ml of culture fluid and 5.59 Log 10 cells/ml of culture fluid. For the same substance, the Bacteroides population with Bacteroides (setting [6]) is recorded as 7.23 Log 10 cells/ml of culture fluid; in the assay with Bacteroides (setting [7]), 8.53 Log 10 cells/ml of culture fluid; in the assay with Bacteroides (setting [8]) it was 8.35 Log 10 cells/ml of culture fluid; with Bacteroides (setting [9]), 6.36 Log 10 cells/ml of culture fluid; in the assay with Bacteroides (setting [10]), 8.81 Log 10 cells/ml of culture fluid; in the assay on Bacteroides (setting [11]), 8.55 Log 10 cells/ml of culture fluid. In addition, the bifidobacteria in humans result in the assay on bifidobacteria [2] is reported as “significantly increase bifidobacteria”. The “Eubacterium rectale and Clostridium coccoides population” value is listed as 9.14 Log 10 cells/ml of culture fluid in assay [3] (setting [6]); 9.19 Log 10 cells/ml of culture fluid in assay [3] (setting [7]); 9.17 Log 10 cells/ml of culture fluid in assay [3] (setting [8]); 9.37 Log 10 cells/ml of culture fluid in assay [3] (setting [9]); 9.28 Log 10 cells/ml of culture fluid in assay [3] (setting [10]); 9.20 Log 10 cells/ml of culture fluid in assay [3] (setting [11]). Besides, the Bifidobacteria population was 7.62 Log 10 cells/ml of culture fluid with Bifidobacteria [4] (setting [6]); 7.52 Log 10 cells/ml of culture fluid in the assay on Bifidobacteria [4] (setting [7]); 7.49 Log 10 cells/ml of culture fluid in the assay on Bifidobacteria [4] (setting [8]); 8.45 Log 10 cells/ml of culture fluid in the assay on Bifidobacteria [4] (setting [9]); 8.26 Log 10 cells/ml of culture fluid with Bifidobacteria [4] (setting [10]); 8.15 Log 10 cells/ml of culture fluid with Bifidobacteria [4] (setting [11]). Further, the “prebiotic effect in gut model (in words)” value in the assay with Bifidobacteria [4] (SS1 vs SS2, 1.33 g digested black tea solids per day (2.40 g before digestion), 5 g/day inulin) is “achieved a similar effect”.

As to catechins, in assay [5], the “prebiotic effect (in words)” value is “appear to reduce the prebiotic effect of thearubigins”.

For fructo-oligosaccharides, the bifidobacteria in humans result in the assay on bifidobacteria [2] is reported as “significantly increase bifidobacteria”.

For theaflavins, the “prebiotic effect (in words)” value in assay [5] is “little or no prebiotic effect”.
